Results reported in patent US8536202B2, “Triazole-substituted anthranilamides as pesticides” (Bayer Cropscience AG, priority 2010, dated 2013).
Where two headings read alike, the source gives them in different places.

How the values were obtained:
[1] = log P determination by HPLC on reversed-phase columns (EEC Directive 79/831 Annex V.A8); type: physicochemical; details: pH 2.7
In short: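 Calibration used unbranched alkan-2-ones of 3 to 16 carbons with known log P, values interpolated linearly from retention times between neighbouring standards. Acidic-range LC-MS run at pH 2.7, eluents aqueous and acetonitrile formic acid 0.1%, linear gradient 10% to 95% acetonitrile.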

[2] = tested on: larvae of the mustard beetle (Phaedon cochleariae); test: Phaedon test (PHAECO spray treatment); type: in vivo; details: 168 h, read-out: activity in %
In short: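 Mortality of mustard beetle larvae, expressed as percent killed (100% all, 0% none), assessed 7 days after spraying. Spray liquor made from compound in acetone plus dimethylformamide with alkylaryl polyglycol ether, diluted in emulsifier-containing water to the desired concentration.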

[3] = tested on: caterpillars of the armyworm (Spodoptera frugiperda); test: Spodoptera frugiperda test (SPODFR spray treatment); type: in vivo; details: 168 h; for pest or weed control at 100 g/ha: read-out: activity in %
In short: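 Percent caterpillar mortality read 7 days after infestation (0% none killed, 100% all killed). Treatment was a spray of the acetone/DMF/emulsifier formulation, water-diluted to test concentration, onto Zea mays leaf discs, allowed to dry before larvae were added.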

[4] = tested on: green peach aphid (Myzus persicae); test: Myzus test (MYZUPE spray treatment), Use Example 4; type: in vivo; details: 144 h, read-out: activity in %
In short: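 Compound was formulated in acetone/dimethylformamide with alkylaryl polyglycol ether emulsifier and diluted in emulsifier-containing water. It was sprayed onto Chinese cabbage leaf discs infested with all stages of Myzus persicae. Mortality (%) was scored after 6 days, where 100% means all aphids killed.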

[5] = reversed-phase C18 HPLC column, HPLC on reversed-phase columns (C 18), EEC Directive 79/831 Annex V.A8, read-out: logP
[6] = HPLC on reversed-phase columns (C 18), EEC Directive 79/831 Annex V.A8, read-out: logP

SMILES	chromatographic logP [1]	pest or weed control at 100 g/ha ([2]; 100 g/ha, after 7 days) [%]	pest or weed control at 100 g/ha ([3]; 100 g/ha, after 7 days) [%]	pest or weed control at 100 g/ha ([4]; 100 g/ha, after 6 days) [%]	pest or weed control at 20 g/ha ([3]; after 7 days) [%]	chromatographic logP [1, 5]	chromatographic logP [1, 6]	pest or weed control at 100 g/ha [2] [%]	pest or weed control at 100 g/ha [3] [%]	pest or weed control at 100 g/ha [4] [%]
Cc1cc(I)cc(C(N)=O)c1NC(=O)c1cc(Cn2cc(C(F)(F)F)nn2)nn1-c1ncccc1Cl [Example 213]	2.64	100	100	100	–	–	–	–	–	–
CC(C)NC(=O)c1cc(Cl)cc(Cl)c1NC(=O)c1cc(Cn2ncc(C(F)(F)F)n2)nn1-c1ncccc1Cl [Example 150]	3.41	100	100	90	–	–	–	–	–	–
Cc1cc(C#N)cc(C(=O)NC(C)C)c1NC(=O)c1cc(Cn2cc(C(F)(F)C(F)(F)F)nn2)nn1-c1ncccc1Cl [Example 320]	3.11	100	100	100	–	–	–	–	–	–
CC(C)(C)NC(=O)c1cc(Cl)cc(Cl)c1NC(=O)c1cc(Cn2cc(C(F)(F)F)nn2)nn1-c1ncccc1Cl [Example 201]	3.42	100	100	100	–	–	–	–	–	–
CNC(=O)c1cc(C#N)cc(C)c1NC(=O)c1cc(Cn2ncc(C(F)(F)C(F)(F)F)n2)nn1-c1ncccc1Cl [Example 365]	3.04	100	100	100	–	–	–	–	–	–
Cc1cc(I)cc(C(N)=O)c1NC(=O)c1cc(Cn2ncc(C(F)(C(F)(F)F)C(F)(F)F)n2)nn1-c1ncccc1Cl [Example 271]	3.7	100	–	80	100	–	–	–	–	–
CSC[C@H](C)NC(=O)c1cc(C#N)cc(C)c1NC(=O)c1cc(Cn2ncc(C(F)(C(F)(F)F)C(F)(F)F)n2)nn1-c1ncccc1Cl [Example 254]	–	100	100	80	–	4.06	–	–	–	–
Cc1cc(C#N)cc(C(=O)NC(C)C2CC2)c1NC(=O)c1cc(Cn2ncc(C(F)(F)F)n2)nn1-c1ncccc1Cl (stereo not drawn) [Example 125]	3.39	100	100	100	–	–	–	–	–	–
Cc1cc(C#N)cc(C(=O)NCC2CC2)c1NC(=O)c1cc(Cn2ncc(C(F)(F)F)n2)nn1-c1ncccc1Cl [Example 130]	3.17	100	100	100	–	–	–	–	–	–
Cc1cc(I)cc(C(=O)NC(C)(C)C)c1NC(=O)c1cc(Cn2cc(C(F)(F)C(F)(F)F)nn2)nn1-c1ncccc1Cl [Example 313]	4.09	100	100	100	–	–	–	–	–	–
CNC(=O)c1cc(C#N)cc(C)c1NC(=O)c1cc(Cn2nc(C(F)(F)F)c(C(F)(F)F)n2)nn1-c1ncccc1Cl [Example 414]	3.43	100	100	100	–	–	–	–	–	–
Cc1cc(Cl)cc(C(N)=O)c1NC(=O)c1cc(Cn2cc(C(F)(F)C(F)(F)C(F)(F)F)nn2)nn1-c1ncccc1Cl [Example 338]	–	–	–	–	–	–	3.13	100	100	100
CNC(=O)c1cc(Cl)cc(C)c1NC(=O)c1cc(Cn2cc(C(F)(F)F)nn2)nn1-c1ccccc1Cl [Example 291]	–	100	100	80	–	3.08	–	–	–	–
Cc1cc(C#N)cc(C(=O)NC(C)(C)C)c1NC(=O)c1cc(Cn2cc(-c3ccc(F)cc3)nn2)nn1-c1ncccc1Cl [Example 53]	3.17	100	100	80	–	–	–	–	–	–
CNC(=O)c1cc(I)cc(C)c1NC(=O)c1cc(Cn2ncc(C(F)(F)C(F)(F)F)n2)nn1-c1ncccc1Cl [Example 358]	3.64	100	100	80	–	–	–	–	–	–
Cc1cc(C#N)cc(C(=O)NC2CC2)c1NC(=O)c1cc(Cn2cc(C(F)(F)C(F)(F)F)nn2)nn1-c1ncccc1Cl [Example 318]	2.89	100	100	100	–	–	–	–	–	–
Cc1cc(C#N)cc(C(N)=O)c1NC(=O)c1cc(Cn2cc(C(F)(C(F)(F)F)C(F)(F)F)nn2)nn1-c1ncccc1Cl [Example 223]	2.84	100	–	100	100	–	–	–	–	–
CSC[C@H](C)NC(=O)c1cc(Cl)cc(C)c1NC(=O)c1cc(Cn2ncc(C(F)(C(F)(F)F)C(F)(F)F)n2)nn1-c1ncccc1Cl [Example 262]	–	100	100	80	–	4.45	–	–	–	–
Cc1cc(Cl)cc(C(=O)NCC#N)c1NC(=O)c1cc(Cn2cc(C(F)(F)F)nn2)nn1-c1ncccc1Cl [Example 196]	2.61	100	100	100	–	–	–	–	–	–
CNC(=O)c1cc(C#N)cc(C)c1NC(=O)c1cc(Cn2nnc3cc(C(F)(F)F)ccc32)nn1-c1ncccc1Cl [Example 101]	2.76	100	100	100	–	–	–	–	–	–
CCNC(=O)c1cc(C#N)cc(C)c1NC(=O)c1cc(Cn2cc(C(F)(F)C(F)(F)F)nn2)nn1-c1ncccc1Cl [Example 319]	2.89	100	100	100	–	–	–	–	–	–
Cc1cc(C#N)cc(C(=O)NC(C)(C)C)c1NC(=O)c1cc(Cn2nnc3c(Cl)cc(C(F)(F)F)cc32)nn1-c1ncccc1Cl [Example 110]	–	100	100	90	–	3.96	–	–	–	–
Cc1cc(C#N)cc(C(=O)NC(C)C2CC2)c1NC(=O)c1cc(Cn2cc(C(F)(F)C(F)(F)C(F)(F)F)nn2)nn1-c1ncccc1Cl (stereo not drawn) [Example 331]	–	–	–	–	–	–	3.71	100	100	100
Cc1cc(C#N)cc(C(N)=O)c1NC(=O)c1cc(Cn2nc(C(F)(F)F)c(C(F)(F)F)n2)nn1-c1ncccc1Cl [Example 396]	3.21	100	100	90	–	–	–	–	–	–
CNC(=O)c1cc(C#N)cc(C)c1NC(=O)c1cc(Cn2ncc(C(F)(F)F)n2)nn1-c1ccccc1Cl [Example 284]	–	100	100	80	–	3.1	–	–	–	–
Cc1cc(Cl)cc(C(=O)NC2CC2)c1NC(=O)c1cc(Cn2cc(C(F)(F)C(F)(F)C(F)(F)F)nn2)nn1-c1ncccc1Cl [Example 326]	–	–	–	–	–	–	3.57	100	100	100
Cc1cc(C#N)cc(C(=O)NC2CC2)c1NC(=O)c1cc(Cn2cc(C(F)(F)C(F)(F)C(F)(F)F)nn2)nn1-c1ncccc1Cl [Example 342]	–	–	–	–	–	–	3.22	100	100	100
